In US20110034531A1, “USE OF HDAC INHIBITORS FOR THE TREATMENT OF MELANOMA” (NOVARTIS AG, priority 2007, published 2011):

Experiments:
[1] = system: WM-266-4; assay: Monolayer growth inhibition assay (MTT/MTS), WM-266-4; format: cell-based; details: WM-266-4 melanoma cell line, treated for 3 days
Source text: (§1) The MTT is a colorimetric assay to determine the cell proliferation rate. The yellow tetrazolium MTT (3-(4,5-dimethylthiazolyl-2)-2,5-diphenyltetrazolium bromide) is reduced by metabolically active cells, in part by the action of dehydrogenase enzymes, to generate reducing equivalents, such as NADH and NADPH. The resulting intracellular purple formazan can be solubilized and quantified by spectrophotometric means. The signals produced is directly proportional to the cell numbers. Describing the MTT assay in detail, experiments were done using six-point or nine-point drug titrations in multi-well tissue culture dishes, with outer rows left empty. Cells were suspended in complete media at densities of between 10^3 and 10^4 cell/mL, respectively, and added per well. The appropriate medium (200 μL) was then added. […] This plate was incubated at 37° C. for 4 hours and the optical density was measured on a Molecular Devices Thermomax at 490 nm using the Softmax program. […]
(§2) Compound addition began 24 hours after seeding, the same time as the T0 determination. […] The MTS solution was added (as for the To plate) and read 4 hours later. […]
(§3) A panel of Melanoma cell lines were treated with DMSO vehicle control or varying concentrations of LBH589 for 3 days. Cell proliferation was measured on the day of cell plating and on the third day post-treatment. IC50 and LD50 values were calculated as described above.

[2] = system: A2058; assay: Monolayer growth inhibition assay (MTT/MTS), A2058; format: cell-based; details: A2058 melanoma cell line, treated for 3 days
Source text: as §1, §2, §3

[3] = system: A375; assay: Monolayer growth inhibition assay (MTT/MTS), A375; format: cell-based; details: A375 melanoma cell line, treated for 3 days
Source text: as §1, §2, §3

[4] = system: SK-MEL-28; assay: Monolayer growth inhibition assay (MTT/MTS), SK-MEL-28; format: cell-based; details: SK-MEL-28 melanoma cell line, treated for 3 days
Source text: as §1, §2, §3

[5] = system: MeWo; assay: Monolayer growth inhibition assay (MTT/MTS), MeWo; format: cell-based; details: MeWo melanoma cell line, treated for 3 days
Source text: as §1, §2, §3

[6] = system: G-361; assay: Monolayer growth inhibition assay (MTT/MTS), G-361; format: cell-based; details: G-361 melanoma cell line, treated for 3 days
Source text: as §1, §2, §3

[7] = system: RPMI-7951; assay: Monolayer growth inhibition assay (MTT/MTS), RPMI-7951; format: cell-based; details: RPMI-7951 melanoma cell line, treated for 3 days
Source text: as §1, §2, §3

[8] = system: SK-MEL-5; assay: Monolayer growth inhibition assay (MTT/MTS), SK-MEL-5; format: cell-based; details: SK-MEL-5 melanoma cell line, treated for 3 days
Source text: as §1, §2, §3

[9] = system: panel of Melanoma cell lines
Source text: as §1, §2, §3

[10] = Homo sapiens, 72 h, read-out: IC50 [nM] Measure of Cell Growth Inhibition
[11] = concentration reducing cell number to 50% of original inoculum

Cc1[nH]c2ccccc2c1CCNCc1ccc(/C=C/C(=O)NO)cc1 [LBH589, N-hydroxy-3-[4-[[[2-(2-methyl-1H-indol-3-yl)-ethyl]-amino]methyl]phenyl]-2E-2-propenamide]
IC50 [1, 10]: 26.4 nM | LD50 (nM) Measure of Cell Kill [1, 11]: 73.05 nM | LD50 (nM) Measure of Cell Kill [2, 11]: 58.96 nM | IC50 [2, 10]: 17.8 nM | LD50 (nM) Measure of Cell Kill [3, 11]: 77.83 nM | IC50 ([3]; Homo sapiens, A-375, 72 h, read-out: IC50 [nM] Measure of Cell Growth Inhibition): 32.7 nM | IC50 [4, 10]: 43.1 nM | LD50 (nM) Measure of Cell Kill [4, 11]: 129.33 nM | IC50 [5, 10]: 34.5 nM | LD50 (nM) Measure of Cell Kill [5, 11]: 157.64 nM | LD50 (nM) Measure of Cell Kill [6, 11]: 51.44 nM | IC50 [6, 10]: 8.09 nM | IC50 [7, 10]: 27.6 nM | LD50 (nM) Measure of Cell Kill [7, 11]: 71.63 nM | IC50 [8, 10]: 6.15 nM | LD50 (nM) Measure of Cell Kill [8, 11]: 54.95 nM | LD50, cytotoxic effect ([9]; 3 days): < 160 nM | IC50 values, anti-proliferative effect ([9]; all 8 melanoma cell lines examined, treated for 3 days): low nanomolar
